Test results taken from US20100323984A1, “COSMETIC ORAL AND/OR PARENTERAL USE OF GLUCOSAMINE OPTIONALLY IN COMBINATION WITH AT LEAST ONE POLYPHENOL COMPOUND, AND CORRESPONDING COMPOSITION” (LABORATOIRES INNEOV, priority 2006, published 2010).
Counter-ions that a name gives are not always drawn.

Legend:
Human fibroblasts = test: Cytotoxicity on fibroblasts (number of cells by DNA fluorimetry); format: cell-based; conditions: for DNA (number of cells): 48 h, control 2.37 ± 0.33
Method: (§1) Human fibroblasts, harvested by growth from skin explants from a normal young donor, are routinely cultured in DMEM containing 10% of fetal bovine serum (FCS), ascorbic acid (50 μg/ml), penicillin-streptomycin (100 U/ml), referred to in the rest of the report as DMEM-FCS. They are amplified in culture by trypsinizing subconfluent cultures and dividing the dishes 1 in 3. The cultures are used up until passage 14. They are regularly tested for the absence of mycoplasma.
(§2) The glucosamine sulfate is provided in the form of (C6H14NO5)2 S04.2KCl (glucosamine.SO4 titer: 74%) brand Bioiberica, code F0379, Batch 4/0001. A stock solution at 13.6 mg/ml of distilled water is sterilized by filtration through an Acrodisc, and conserved at −20° C.
The fibroblasts are seeded into 24-well multiwells at 25 or 50×10^3 cells/well in DMEM-FCS. After 6 h of attachment, 20 μl of gradual dilutions of the active agents to be tested are added to the cultures. After 24 h of contact, the medium and the active agents are renewed. After 48 h of culture, the medium is removed, and the cell layers are rinsed twice with physiological saline. The number of cells is determined by measuring DNA by the fluorimetric technique using the bisbenzimide reagent in a “Gemini” fluorimeter. The cultures are prepared in triplicate and the measurements are carried out on each culture in duplicate. The control cultures receive the solvent alone.
The toxicity of glucosamine sulfate is tested at 0.5, 1, 5, 10, 20 and 40× the plasma concentration, i.e. 3.4, 6.8, 34, 68, 136 and 272 μg/ml of culture medium.

fibroblasts = test: Retracting collagen gel (contractile properties of fibroblasts); format: cell-based, human
Method: Human fibroblasts, harvested by growth from skin explants from a normal young donor, are routinely cultured in DMEM containing 10% of fetal bovine serum (FCS), ascorbic acid (50 μg/ml), penicillin-streptomycin (100 U/ml), referred to in the rest of the report as DMEM-FCS. They are amplified in culture by trypsinizing subconfluent cultures and dividing the dishes 1 in 3. The cultures are used up until passage 14. They are regularly tested for the absence of mycoplasma. A sterile solution of purified native collagen is mixed with a suspension of fibroblasts, DMEM-FCS medium and the test products in bacteriological dishes. The mixture is brought to 37° C., this resulting in polymerization of the collagen and the formation of a three-dimensional collagen gel trapping the fibroblasts and floating in the culture medium. The cells attached to the collagen fibers and, under the contractile activity of the cytoskeleton of the fibroblasts, the gel is gradually retracted. This gel is commonly referred to as “Retracting Collagen Gel” or RCG. […]

Fibromodulin = test: Example 4 clinical study, skin biopsy mRNA by RT-PCR: fibromodulin; format: in vivo, human; conditions: oral, equivalent to 250 mg of glucosamine, 8 weeks, women aged 50 to 65, n=8; placebo 1.12 ± 0.16
Method: (§3) Restrictive randomized monocentric double-blind study versus placebo. Fifteen women, aged 50 to 65, were given, as a supplement, for 8 weeks, either a placebo (n=7) or glucosamine sulfate (n=8) equivalent to 250 mg of glucosamine (GLU).
(§4) A skin biopsy 3 mm in diameter (inner face of the arm) was taken before the beginning (T0) and at the end of the 8 weeks of supplementation (T8).
(§5) The total RNA contained in the skin samples was extracted and purified by means of an Ambion Ribo Pure Kit.
(§6) The analysis of the specific dermal markers was carried out by RT-PCR as previously described (Nusgens et al, JID, 116: 853-859, 2001). All the results are expressed in arbitrary units relative to the amount of 28S rRNA.
(§7) The effects of the supplementation (placebo or GLU) were then analyzed by comparing, for each volunteer, the individual expression of the mRNAs at T8 and at T0. A […] ratio was thus calculated. The means of each ratio of the two groups were compared using a Student's test for paired samples.

Hyaluron synthase = test: Example 4 clinical study, skin biopsy mRNA by RT-PCR: hyaluron synthase; format: in vivo, human; conditions: oral, equivalent to 250 mg of glucosamine, 8 weeks, women aged 50 to 65, n=8; placebo 1.51 ± 0.73
Method: as §3, §4, §5, §6, §7

Decorin = test: Example 4 clinical study, skin biopsy mRNA by RT-PCR: decorin; format: in vivo, human; conditions: oral, equivalent to 250 mg of glucosamine, 8 weeks, women aged 50 to 65, n=8; placebo 1.11 ± 0.22
Method: as §3, §4, §5, §6, §7

Biglycan = test: Example 4 clinical study, skin biopsy mRNA by RT-PCR: biglycan; format: in vivo, human; conditions: oral, equivalent to 250 mg of glucosamine, 8 weeks, women aged 50 to 65, n=8; placebo 1.10 ± 0.18
Method: as §3, §4, §5, §6, §7

[1] = tested on: CD44 hyaluronic acid receptor; test: Immunohistochemical demonstration of the hyaluronic acid receptor (CD44) in human skin explants kept alive; format: cell-based; conditions: glucosamine 5 μM in culture medium, D4, scores 0 to 4, control skin 3.4 ± 0.7
Method: For this, a method of culturing was used which allows human skin to be kept alive under metabolic conditions close to in vivo (individuals aged between 50 and 60).
The glucosamine in aqueous solution was added to the culture medium, at the plasma concentration (5 μM), thus making it possible to simulate oral and/or parenteral administration.
Skin fragments were obtained after plastic surgery (mammary or abdominal plasties) from menopausal women (8 different donors from female individuals aged between 50 and 60). The fragments are placed in inserts which are themselves suspended above culture wells. Culture medium is added to the bottom of the wells, the medium passing by slow diffusion between the two compartments by means of a porous membrane (12 μm).
From D0 to D10, glucosamine was added to the culture medium of the skin fragments, every day. For the CD44 analysis, a series of skin samples was taken at D4. A second series was taken at D10 for assaying the collagen synthesis.
The immunodetection was carried out using the CSA kit (DAKO) and visualized in red with AEC (3-amino-9-ethylcarbazole).
Semi-quantitative scores made it possible to specify the intensity of the immunolabeling (scores 0 to 4, from negative to intense). […]

MMP3 = MMP3 mRNA by RT-PCR, human dermal fibroblasts in a monolayer on plastic; format: cell-based; conditions: for MMP3 mRNA: control 1745 ± 31
Method: as §1, §2
The fibroblasts are seeded in DMEM-FCS in a proportion of 2.10^5 cells/disk of 6 cm. After 18 h of attachment, the culture medium is renewed with DMEM-FCS containing:
a) glucosamine sulfate alone • [plasma concentration] 2×(n=2) • 5× (n=2) • 10× (n=2) • control (n=3)
The total amount of RNA present in the solution that will be used to carry out the specific mRNA measurements is determined by measuring the 28S ribosomal RNA. The RNA solution is aliquoted and frozen at −80° C. until the specific mRNAs are assayed by RT-PCR. The mRNA results are expressed in arbitrary units (AU) per unit of 28S. The measurements are carried out in triplicate on two or three separate cultures. • MMP3: stromelysin 1 responsible for the degradation of proteoglycans and of other extracellular matrix constituents and activator of MMP 1

Vimentin = test: Example 4 clinical study, skin biopsy mRNA by RT-PCR: vimentin; format: in vivo, human; conditions: oral, equivalent to 250 mg of glucosamine, 8 weeks, women aged 50 to 65, n=8; placebo 1.27 ± 0.33
Method: as §3, §4, §5, §6, §7

## N[C@@H](C=O)[C@@H](O)[C@H](O)[C@H](O)CO [glucosamine sulfate]
Human fibroblasts; 34 μg/ml, p=0.04
  number of cells (rate of proliferation of the fibroblasts): increase in the number of cells
Human fibroblasts; 0.5x plasma concentration, 3.4 μg/ml
  DNA (number of cells): 2.81 ± 0.41 µg/mL
Human fibroblasts; 1x plasma concentration, 6.8 μg/ml
  DNA (number of cells): 2.56 ± 0.37 µg/mL
Human fibroblasts; 5x plasma concentration, 34 μg/ml
  DNA (number of cells): 2.89 ± 0.23 µg/mL
Human fibroblasts; 10x plasma concentration, 68 μg/ml
  DNA (number of cells): 2.61 ± 0.26 µg/mL
Human fibroblasts; 20x plasma concentration, 136 μg/ml
  DNA (number of cells): 2.52 ± 0.18 µg/mL
Human fibroblasts; 40x plasma concentration, 272 μg/ml
  DNA (number of cells): 2.50 ± 0.32 µg/mL
Human fibroblasts; even at concentrations representing 40× the plasma concentration
  cytotoxic effect: No cytotoxic effect
fibroblasts; 2×, 5× and 10× the plasma concentration, 20 000 fibroblasts, 46 h, control 19 mm
  reduction in the diameter of the collagen gel (retraction): 22 mm
fibroblasts; plasma concentration, 25 000 fibroblasts, 18 hours, controls 21 mm
  reduction in diameter of the collagen gel: 23 mm
Fibromodulin
  Fibromodulin mRNA (T8/T0): significantly increases
Hyaluron synthase
  Hyaluron synthase mRNA (T8/T0): significantly increases
Decorin
  Decorin mRNA (T8/T0): significantly increases
Biglycan
  Biglycan mRNA (T8/T0): significantly increases
[1]
  CD44 labeling Topography score (mean semi-quantitative score): 3.7 ± 0.5
MMP3; 2x plasma concentration
  MMP3 mRNA: 1261 ± 120 UA/28S
MMP3; 2x, 5x, 10x plasma concentration, p<0.005
  level of MMP3 mRNA (in words): significant reduction
MMP3; 5x plasma concentration
  MMP3 mRNA: 1162 ± 22 UA/28S
MMP3; 10x plasma concentration
  MMP3 mRNA: 1060 ± 375 UA/28S
Vimentin
  Vimentin mRNA (T8/T0): significantly increases
